Patent EP0772773B1, “Src SH3 BINDING PEPTIDES AND METHODS OF ISOLATING AND USING SAME” (THE UNIVERSITY OF NORTH CAROLINA, priority 1994, dated 2006)
Entries after “also recorded” stand apart in the source; their conditions may differ.

Legend:
NIH 3T3 fibroblasts = experiment: Fluorescence staining of fixed fibroblasts with biotinylated peptides and streptavidin-Cy3; format: cell-based; settings: fixed NIH 3T3 fibroblasts; biotinylated peptide, streptavidin-Cy3; Figure 11
Procedure: Thus, NIH 3T3 fibroblasts were cultured in vitro on glass coverslips coated with fibronectin. After two days of growth at 37 °C, the cells were fixed for one hour at room temperature in the presence of 2% paraformaldehyde (pH 7.5). The coverslips were washed with PBS-0.1% Tween 20 several times to remove the fixative. Next, the coverslips were dipped into acetone (chilled at -20 °C) for approximately 20 seconds and allowed to air-dry. The coverslips were washed again with PBS-0.1% Tween 20, containing BSA (1 mg/mL), and incubated for 2 hours at room temperature with different biotinylated peptides in PBS-0.1% Tween 20. The coverslips were washed and then incubated with 1 mg/mL streptavidin-Cy3 (Jackson Immunoresearch Co., West Grove, PA) for 1 hour at room temperature. Finally, the coverslips were washed in PBS-0.1% Tween 20, mounted in a glycerol solution on a glass slide, and viewed with a Nikon Optiphot epifluorescence microscope and a 60x oil immersion lens.

Yes SH3-GST = experiment: Biotinylated synthetic peptide direct binding ELISA on immobilized GST-SH3 fusion; settings: 10 µM biotinylated peptide, absorbance at 405 nm, Figure 8
Text: (§1) The preparation of Src-GST fusion protein was first described by Smith and Johnson, in Gene (1988) 67:31, the disclosure of which is incorporated by reference herein. Briefly, pGEX-derived (Pharmacia, Piscataway, NJ) constructs expressing GST fusion proteins containing the SH3 domains of Src, Grb2, Crk, Abl, or PLCγ were obtained from Dr. Channing Der (University of North Carolina at Chapel Hill.), a construct expressing the SH3 domain of Yes was obtained from Dr. Marius Sudol (Rockefeller University). The use of the pGEX bacterial expression vector for the production of GST-SH3 fusion proteins is well-known to those in the art. See, e.g., Cicchetti, P. et al., in Science (1992) 257:803-806. Briefly, the coding region for a particular SH3 domain can be fused in-frame at the Bam HI site of pGEX-2T. Thus, fusion proteins were prepared as per the manufacturer's instructions, and quantified by Coomassie Blue staining of SDS-polyacrylamide gels. Microtiter wells were coated with 5-20 µg GST-SH3 fusion protein in 100 mM NaHCO3, pH 8.5, blocked with 100 mM NaHCO3 (pH 8.5) 1% BSA, and washed. All washes consisted of five applications of 1XPBS, 0.1% Tween 20, 0.1% BSA (Buffer A). Where appropriate, the amount of protein bound to each well was quantified with an anti-GST antibody-based ELISA (Pharmacia, Piscataway, NJ), and with a GST-binding phage, isolated during the course of this work.
(§2) Peptides were obtained from Research Genetics (Birmingham, AL), Chiron Mimotopes (Victoria, Australia), or synthesized by conventional techniques by Dr. J. Mark Carter of cytogen Corporation (Princeton, NJ). Peptide purity was assessed by HPLC and/or mass spectrometry. Biotinylated peptides were synthesized with either a KSGSG (SEQ ID NO:103) or a GSGS (SEQ ID NO:104) peptide linker (a spacer) between the biotin and the N-terminus of the peptide. Binding experiments were performed as above, excepting the use of 10 µM peptide instead of phage. Bound biotinylated peptide was detected with streptavidin conjugated to alkaline phosphatase (Sigma chemical Co., st. Louis, MO). After one hour incubation period at room temperature, the wells were washed, and a solution of 3 mM p-nitrophenyl-phosphate (US Biochemicals, Cleveland, OH) in 50 mM NaCO3 (pH 9.8), and 50 mM MgCl2 was added and color allowed to develop. Signals were read with an ELISA plate reader (Molecular Devices, Menlo Park, CA) at 405 nm wavelength. Binding experiments were performed in triplicate.

Src SH3-GST = experiment: as above; settings: 10 µM biotinylated peptide; streptavidin-alkaline phosphatase ELISA, absorbance at 405 nm; Figures 7 and 8
Text: as §1
Bacterially expressed Src SH3 glutathione-s-transferase (Src-GST) fusion protein was purified from bacterial lysates using glutathione agarose 4B (Pharmacia), according to the manufacturer's instructions. Bound Src-GST fusion protein was eluted from the glutathione agarose with 10 mM glutathione in PBS. Microtiter wells were then coated with Src-GST fusion protein (1-10 µg/well, in 50 mM NaHCO3, pH 8.5) overnight at 4 °C. To block non-specific binding of phage, 100 µL 1% BSA in 100 mM NaHCO3, pH 8.5, was added to each well and allowed to incubate at room temperature for 1 hour. The wells were then washed five times with 200 µL PBS, 0.1% Tween 20, 0.1% BSA (Buffer A).
as §2

SH3 domains [1] = experiment: Relative specificity of peptide binding across SH3 domains derived from different proteins; settings: synthetic peptides, compared with 7-mer RPLPPLP, Figures 7 and 8
Text: as §1, §2

[2] = target: Src and PI-3' Kinase SH3 domains; settings: Yu et al. / Chen et al., biased library peptides; read-out: binding affinity; cited from earlier work
Grb2-GST = experiment: Biotinylated synthetic peptide direct binding ELISA on immobilized GST-SH3 fusion; settings: 10 µM biotinylated peptide, absorbance at 405 nm, Figure 8
Text: as §1, §2

PLCγ1 SH2SH3-GST = experiment: as above; settings: 10 µM biotinylated peptide, absorbance at 405 nm, Figure 8
Text: as §1, §2

SH3 domains [3] = experiment: Relative specificity of peptide binding across SH3 domains derived from different proteins; settings: not tested

Q: Which “fluorescence staining / cellular localization” value (NIH 3T3 fibroblasts) does the source give for “RSTPRPLPPLPTTR [representative consensus motif with R8C.YES3.5 flanking residues]” here?
A: Its value is “localize within cellular compartments thought to contain Src or Src-related proteins”.

Q: And the “binding to Yes SH3-GST” value (Yes SH3-GST)?
A: Its value is “much more avidly than the 7-mer”.

Q: And the “binding to Src SH3-GST” value (Src SH3-GST)?
A: Its value is “much more avidly than the 7-mer; also recorded: strong specific binding affinity”.

Q: And the “relative binding affinity / specificity for SH3 domains” value (SH3 domains [1])?
A: Its value is “highly specific for SH3 domain of Src, Yes, and other Src-related proteins”.

Q: Which Kd [2] does the source give for “RKLPPRPRR ["composite" peptide of the literature]” here?
A: Its Kd is 7.6 µM.

Q: Which “fluorescence staining / cellular localization” value (NIH 3T3 fibroblasts) does the source give for “biotin-spacer-LAPPKPPLPEGEV [reference compound]” here?
A: Its value is “relatively "dark" features”.

Q: Which “relative binding affinity / specificity for SH3 domains” value (SH3 domains [1]) does the source give for ANPSPATRPLPTR here?
A: The value was “binding affinities comparable to the core consensus sequence; also recorded: avid binding affinity to SH3 domains relative to the 7-mer”.

Q: And the “relative binding affinity / specificity for SH3 domains” value (SH3 domains [1]; listed as AHPSPATRPLPTR)?
A: The value was “Src family specificity similar to GPHRRLPPTPATR”.

Q: Which “binding to Src SH3-GST” value (Src SH3-GST) does the source give for KISPPTPKPKPPRPLPV [reference compound] here?
A: The value was “less well than the library-derived peptides”.

Q: For biotin-spacer-RSTPRPLPPLPTTR, which “fluorescence staining / cellular localization” value (NIH 3T3 fibroblasts) is on record?
A: The value was “bright display of fluorescence activity”.

Q: With RPLPPLP as the substance, how does the “binding to Src SH3-GST” value (Src SH3-GST) read?
A: The value was “only weakly”.

Q: And the “relative binding affinity / specificity for SH3 domains” value (SH3 domains [1])?
A: Its value is “less effective in binding to target SH3 domains”.

Q: For biotin-spacer-VLKRPLPIPPVTR, which “fluorescence staining / cellular localization” value (NIH 3T3 fibroblasts) is on record?
A: Its value is “bright display of fluorescence activity”.

Q: For “GTVEPVPPPVPPRRRPESA [reference compound]”, which “binding to Src SH3-GST” value (Src SH3-GST) is on record?
A: The value was “less well than the library-derived peptides”.

Q: With RSTPRPLPMLPTTR as the substance, how does the “binding to Yes SH3-GST” value (Yes SH3-GST) read?
A: The value was “much more avidly than the 7-mer”.

Q: And the “binding to Src SH3-GST” value (Src SH3-GST)?
A: Its value is “much more avidly than the 7-mer; also recorded: strong specific binding affinity”.

Q: What about the “relative binding affinity / specificity for SH3 domains” value (SH3 domains [1]) of the same substance?
A: The value was “highly specific for SH3 domain of Src, Yes, and other Src-related proteins”.

Q: Which “fluorescence staining / cellular localization” value (NIH 3T3 fibroblasts) does the source give for biotin-spacer-GILAPPVPPRNTR here?
A: Its value is “bright display of fluorescence activity”.

Q: With GPHRRLPPTPATR as the substance, how does the “binding to Grb2 SH3 domain” value (Grb2-GST) read?
A: Its value is “little affinity”.

Q: What about the “binding to Yes SH3-GST” value (Yes SH3-GST) of the same substance?
A: The value was “much more avidly than the 7-mer”.

Q: And the “binding to PLCγ SH3 domain” value (PLCγ1 SH2SH3-GST)?
A: The value was “little affinity”.

Q: What about the “binding to Src SH3-GST” value (Src SH3-GST) of the same substance?
A: Its value is “much more avidly than the 7-mer”.

Q: What about the “relative binding affinity / specificity for SH3 domains” value (SH3 domains [1]) of the same substance?
A: The value was “specific to Src family SH3 domains”.

Q: And the “relative binding affinity / specificity for SH3 domains” value (SH3 domains [1]; listed as GPHRRLPPPTPATR)?
A: The value was “avid binding affinity to SH3 domains relative to the 7-mer”.

Q: Which results are given for GILAPPVPPRNTR?
A: fluorescence staining / cellular localization (NIH 3T3 fibroblasts): localize within cellular compartments thought to contain Src or Src-related proteins; binding to Yes SH3-GST (Yes SH3-GST): much more avidly than the 7-mer; binding to Src SH3-GST (Src SH3-GST): much more avidly than the 7-mer; relative binding affinity / specificity for SH3 domains (SH3 domains [1]): binds generically to a broad range of SH3 domains; also recorded: avid binding affinity to SH3 domains relative to the 7-mer; also recorded: more generic SH3 domain-binding characteristics

Q: Which “surmised binding to a variety of SH3 domains” value (SH3 domains [3]) does the source give for RSTPAPPVPPRTTR here?
A: Its value is “strong but generic binding”.
